Results published in PubChem BioAssay AID2060488 (Molecular Pharmacology Branch, DTP, NCI, 2025).
Values joined by “and” are separate entries in the source; they are usually repeats but may differ in a detail not shown here. Equal values may be shown once.

Tested on: 966289-007-R4-J1-PDC complex spheroid viability
Assay: Anticancer human tumor 966289-007-R4-J1-PDC patient-derived pancreatic adenocarcinoma cell line growth inhibition [GQUAD]
Conditions: for viability, T/C: stronger effect = lower value
From the text: DNA G-quadruplex Stabilizer Agents in Combinations in Complex Spheroids
A high-throughput screen of multi-cell type tumor spheroids was designed to identify active combinations of DNA G-quadruplex stabilizer agents and targeted small molecules. Complex spheroids include a stromal component modeled by human endothelial cells (HUVEC) and fibroblasts modeled by human mesenchymal stem cells (MSCs). The concentration ranges selected for each drug and investigational agent were based upon clinically achievable concentrations if the clinical Cmax of the agent was known.
Compounds. The drugs and investigational agents: pidnarulex (CX-5461; NSC782164), APTO-253 (NSC789042), BRACO-19 (NSC847499), peposertib (NSC802822), ceralasertib (NSC780249), elimusertib (NSC800525), camonsertib (NSC841442), AZD-1390 (NSC803789), olaparib (NSC753686), talazoparib (NSC767125), ART-558 (NSC835418), sotorasib (NSC818433), MRTX-1133 (NSC836407), SN-38 (NSC673596), topotecan (NSC609699), etoposide (NSC141540), doxorubicin (NSC123127), gemcitabine (NSC613327), 5-fluorouracil (NSC19893), paclitaxel (NSC125973), vemurafenib (NSC761431), panobinostat (NSC761190), R-306465 (JNJ-16241199; NSC773264), adavosertib (NSC754352), TP-3654 (NSC805149), carboplatin (NSC241240), KSQ-4279 (NSC840948), and staurosporine (NSC755774) were obtained from the National Cancer Institute (NCI) Developmental Therapeutics Program Chemical Repository (34). The FDA-approved anticancer drug set is available from the NCI Developmental Therapeutics Program. […] The stock solutions were prepared in dimethyl sulfoxide (DMSO, Sigma-Aldrich, St. Louis, MO, cat. D2650) at 800-fold the tested concentration and stored at -70 degrees C prior to their use. All drugs and investigational agents were tested over a range starting from a high concentration at or near the clinical Cmax and decreasing in half-log increments. If the clinical Cmax for an agent had not been determined, the highest concentration tested was 10 microM.
2.3 Cell Culture. All cells were maintained in an incubator at 37 degrees C and 5% CO2 with 95% humidity. The PDC lines were cultured according to standard operating procedures established by the NCI PDMR. All PDCs were thawed and cultured in Matrigel-coated flasks prepared with a working solution of 1X Ham's F-12 nutrient mix, without supplementation (Invitrogen, cat. 11765054), 100 U/mL penicillin-streptomycin (Invitrogen, cat. 15140122), and 2.5% Matrigel (Corning Inc., cat. 354248) for the first three passages. The 857933-349-R-J2-PDC line was cultured in 6C/Colon 1B media, which includes advanced DMEM/F-12 (Thermo Fisher Scientific, cat. 12634028), 10 mM HEPES (Thermo Fisher Scientific, cat. 15630080), 1X GlutaMAX supplement (Thermo Fisher Scientific, cat. 35050061), 0.1 mg/mL primocin (InvivoGen, cat. ant-pm-2), 10% defined fetal bovine serum, heat inactivated (HyClone Laboratories Inc., cat. SH30070.03HI), 50% L-WRN conditioned media (ATCC, cat. CRL-3276), 1.25 mM N-Acetyl-L-cysteine (Sigma-Aldrich, cat. A9165), 10 mM nicotinamide (Sigma-Aldrich, cat. N0636), 1X B-27 supplement (Thermo Fisher Scientific, cat. 17504044), 1X N-2 supplement (Thermo Fisher Scientific, cat. 17502048), 10 microM Y-27632 dihydrochloride (Tocris Bioscience, cat. 1254), and 50 ng/mL human EGF recombinant protein (Thermo Fisher Scientific, cat. PHG0311). The 485176-168-R4-J1-PDC line was cultured in Panc media, which includes all 6C/Colon 1B media components plus 100 ng/mL human FGF-10 (Thermo Fisher Scientific, cat. 100-26), 500 nM SB-431542 (Selleckchem, cat. S1067), and gastrin (Tocris, cat. 3006).
[…]

[1] = compound alone, run of 03/18/2024
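Note: spheroids exposed to the agents for seven days before readout.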
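Throughout, for viability, T/C: percent viability relative to DMSO vehicle control wells taken as 100%.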

IC50 (curve of compound)	IC50 [1]	IC50 (compound alone, run of 03/26/2024) [nM]	Compound	viability, T/C (compound 0.0316 µM)	viability, T/C (compound 0.1 µM)	viability, T/C (compound 0.316 µM)	viability, T/C (compound 1 µM)	viability, T/C (compound 3.16 µM)	viability, T/C (compound 10 µM)	viability, T/C (compound 0.000999 µM)	viability, T/C (compound 0.00316 µM)	viability, T/C (compound 0.00999 µM)	viability, T/C (compound 0.0999 µM)
> 10000 nM			COc1ncnc(C2CC2)c1-c1ncc2cnn(Cc3ccc(-c4nc(C(F)(F)F)cn4C(C)C)cc3)c2n1	92.2% and 102% and 104%	102% and 103% and 100%	101% and 102% and 100%	107% and 98% and 97%	103% and 106% (2×)	116% and 108% (2×)				
> 10000 nM			Cc1cccc(N(C)C(=O)C2C(O)CCN2c2nc(C)cc(C(F)(F)F)c2C#N)c1 (stereo unspecified)	92% and 111% and 99.9%	98.4% and 97.2% and 95.8%	103% (2×) and 109%	94.9% and 98% and 99.5%	107% and 106% and 89.2%	102% and 107% (2×)				
96.1 nM and 168 nM and 91.9 nM			Cn1ncnc1[C@H]1c2n[nH]c(=O)c3cc(F)cc(c23)N[C@@H]1c1ccc(F)cc1	92.4% and 104% and 99.6%		22.8% and 22.4% and 18%				105% and 99.3% and 95.6%	91.2% and 98.8% and 98.2%	113% and 105% and 112%	48.8% and 72.8% and 46.1%
< 31.6 nM			Nc1ccn(C2OC(CO)C(O)C2(F)F)c(=O)n1 (stereo unspecified)	6.63% and 12% and 8.01%	0.75% and 1.27% and 0.79%	0.96% and 0.9% and 0.65%	0.7% and 0.97% and 0.68%	0.83% and 1.32% and 0.61%	0.79% and 1.07% and 0.63%				
4520 nM and 5320 nM and 4180 nM			O=C(c1cc(Cc2n[nH]c(=O)c3ccccc23)ccc1F)N1CCN(C(=O)C2CC2)CC1	111% and 99.1% and 104%	98.8% and 108% and 98.4%	109% and 105% and 111%	106% and 108% and 112%	67.5% and 82.8% and 61.1%	11.2% and 10.4% and 14.9%				

Continued, compound first:

Compound	IC50 (curve of compound)	IC50 [1]	IC50 (compound alone, run of 03/26/2024) [nM]	viability, T/C (compound 0.0316 µM)	viability, T/C (compound 0.1 µM)	viability, T/C (compound 0.316 µM)	viability, T/C (compound 1 µM)	viability, T/C (compound 3.16 µM)	viability, T/C (compound 10 µM)	viability, T/C (compound 0.000999 µM)	viability, T/C (compound 0.00316 µM)	viability, T/C (compound 0.00999 µM)	viability, T/C (compound 0.0999 µM)
COc1cc(C2c3cc4c(cc3C(OC3OC5COC(C)OC5C(O)C3O)C3COC(=O)C23)OCO4)cc(OC)c1O (stereo unspecified)	271 nM and 320 nM			106% (2×) and 108%	108% and 111% and 110%	41.2% and 40.8% and 50.3%	5.14% and 5.7% and 8.75%	1.52% and 0.98% and 2.8%	0.83% and 0.61% and 0.86%				
COc1ccc([C@@H](O)c2cc(-c3ncnc4cc(N5CCOCC5)ccc34)c(F)cc2Cl)nn1	> 10000 nM			103% and 98.9% and 97.2%	92.9% and 100% and 92%	110% and 106% and 105%	103% (2×) and 108%	113% and 110% and 126%	90.2% and 103% and 108%				
COc1cccc2c1C(=O)c1c(O)c3c(c(O)c1C2=O)CC(O)(C(=O)CO)CC3OC1CC(N)C(O)C(C)O1 (stereo unspecified)	65 nM and 69 nM and 60.2 nM			112% and 114% and 102%	12.9% and 19.6% and 8.98%	3.19% and 2.75% and 1.72%	0.71% and 0.91% and 0.56%	0.27% and 0.41% and 0.16%	0.4% and 0.47% and 0.34%				
Cc1[nH]c2ccc(F)cc2c1-c1nc2c3cccnc3c3ncccc3c2[nH]1		> 10000 nM	> 10000	104% [middle of 11 runs]	108% [middle of 11 runs]	109% [middle of 11 runs]	109% [middle of 11 runs]	106% [middle of 11 runs]	98.2% [middle of 11 runs]				
Cc1[nH]c2ccccc2c1CCNCc1ccc(/C=C/C(=O)NO)cc1	73 nM and 71.1 nM and 63.4 nM			100% and 97.8% and 99.5%		4.6% and 4.59% and 3.46%				110% and 92.2% and 99.7%	100% and 103% and 113%	104% and 91% and 101%	31.1% and 30.7% and 17.7%
Cc1cnc(CNC(=O)c2c(=O)c3ccc(N4CCCN(C)CC4)nc3n3c2sc2ccccc23)cn1		81.7 nM [middle of 11 runs]			36.7% [middle of 12 runs]	12.6% [middle of 12 runs]	6.91% [middle of 11 runs]	5.45% [middle of 11 runs]	0.16% [middle of 11 runs]				
O=C(NO)c1cnc(N2CCN(S(=O)(=O)c3ccc4ccccc4c3)CC2)nc1	241 nM and 258 nM and 480 nM			104% and 97% and 89.4%	104% (2×) and 99.9%	33.4% and 39% and 70%	7.89% and 9.13% and 14.1%	1.55% and 1.2% and 4.88%	0.4% and 0.34% and 0.29%				
O=c1[nH]cc(F)c(=O)[nH]1	197 nM and 176 nM and 196 nM			102% and 98.6% and 93.7%	102% and 85.7% and 101%	14% and 12.6% and 16.4%	6.4% and 6.04% and 6.66%	6.46% and 5.66% and 4.89%	6.43% and 6.71% and 6.08%				
